Assay results reported in ChEMBL document CHEMBL5131439, “Triproamide and Pemukainalides, Cyclic Depsipeptides from the Marine Cyanobacterium Symploca hydnoides” (J Nat Prod, 2022).
Starred links: 1 amine or outer side, 2 acyl side, 3 side chain; linkers in the order of their positions; H or OH if unused. Non-standard residues stand in square brackets, D forms with d. Residues, ends and D or L forms follow the SMILES beside them. X1 = C[C@H](Cc1ccccc1)[C@H](N[*:1])C(=O)[*:2]; X2 = CC(C)[C@@H](N[*:1])[C@@H](C)C(=O)[*:2]; dNMeV = CN[C@@H](C(=O)O)C(C)C; dHiv = CC(C)[C@@H](O)C(=O)O; Lac = C[C@H](O)C(=O)O

System: MOLT-4
Assay: Cytotoxicity against human MOLT-4 cells assessed as reduction in cell viability incubated for 24 hrs by MTT assay
Format: functional, cell-based
Settings: MOLT-4, 24 h

## C#CCCC[C@@H]1OC(=O)[C@H](Cc2ccccc2)NC(=O)[C@H](C(C)C)NC(=O)[C@@H]2CCCN2C(=O)[C@@H]2CCCN2C(=O)[C@H](C)OC(=O)[C@@H](C(C)C)N(C)C(=O)[C@H](C(C)C)NC(=O)C1(C)C
  IC50: 5.9 µM

## CC(C)[C@H]1NC(=O)[C@@H]2CCCN2C(=O)[C@H]([C@H](C)Cc2ccccc2)NC(=O)[C@@H]2CCCN2C(=O)[C@@H](C(C)C)N(C)C(=O)[C@@H](C(C)C)OC(=O)[C@@H]2CCCN2C(=O)[C@H](C)OC(=O)[C@@H]1C (cyclo([Lac]P[dHiv][dNMeV]P[X1]P[X2]))
  IC50: 2.5 µM

## CC(C)[C@@H]1OC(=O)[C@H](C)[C@@H](C(C)C)NC(=O)[C@@H]2CCCN2C(=O)[C@H]([C@H](C)Cc2ccccc2)NC(=O)[C@@H]2CCCN2C(=O)[C@@H](C(C)C)OC(=O)[C@@H]2CCCN2C(=O)[C@@H](C(C)C)N(C)C1=O
  IC50: 23 µM

## CCCCC[C@@H]1OC(=O)[C@H](Cc2ccccc2)NC(=O)[C@H](C(C)C)NC(=O)[C@@H]2CCCN2C(=O)[C@@H]2CCCN2C(=O)[C@H](C)OC(=O)[C@@H](C(C)C)N(C)C(=O)[C@H](C(C)C)NC(=O)C1(C)C
  IC50: 37 µM

## C=CCCC[C@@H]1OC(=O)[C@H](Cc2ccccc2)NC(=O)[C@H](C(C)C)NC(=O)[C@@H]2CCCN2C(=O)[C@@H]2CCCN2C(=O)[C@H](C)OC(=O)[C@@H](C(C)C)N(C)C(=O)[C@H](C(C)C)NC(=O)C1(C)C
  IC50: 5.6 µM
